Results published in PubChem BioAssay (NCI).
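Cultured in 96-well plates, cells were exposed to test compound for 48 hours across five concentrations. The concentration for 50% growth inhibition is given as GI50. TGI is the concentration that stops growth completely.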

Columns and labels:
Assay in all cases: DTP human tumour cell line panel, 48 h
NCI-H23 lung = tested on: NCI-H23 lung
BT-549 breast = tested on: BT-549 breast
NCI/ADR-RES ovarian = tested on: NCI/ADR-RES ovarian
M14 melanoma = tested on: M14 melanoma
LOX IMVI melanoma = tested on: LOX IMVI melanoma
HL-60(TB) leukemia = tested on: HL-60(TB) leukemia
DU-145 prostate = tested on: DU-145 prostate
A549 NSCLC = tested on: A549 NSCLC
SF-539 CNS = tested on: SF-539 CNS
SR leukemia = tested on: SR leukemia

Compound	TGI (NCI-H23 lung) [µM]	TGI (BT-549 breast) [µM]	TGI (NCI/ADR-RES ovarian) [µM]	TGI (M14 melanoma) [µM]	TGI (LOX IMVI melanoma) [µM]	TGI (HL-60(TB) leukemia) [µM]	TGI (DU-145 prostate) [µM]	TGI (A549 NSCLC) [µM]	TGI (SF-539 CNS) [µM]	TGI (SR leukemia) [µM]	GI50 (SF-539 CNS) [µM]	GI50 (NCI-H23 lung) [µM]	GI50 (NCI/ADR-RES ovarian) [µM]	GI50 (M14 melanoma) [µM]	GI50 (HL-60(TB) leukemia) [µM]	GI50 (DU-145 prostate) [µM]	GI50 (A549 NSCLC) [µM]
CC(=O)OCC1OC(Oc2cc(C)c(O)cc2C/C=C(\C)CC/C=C(\C)CC(=O)CC(C)C)C(O)C(OC(C)=O)C1OC(C)=O (centres undefined)	18.8	31.2	31.9	25.7	32.7	23.4	> 50	20.3									
COc1ccc(OC)c(NS(=O)(=O)c2ccc3nc(C)n(NS(=O)(=O)c4cc(OC)ccc4OC)c(=O)c3c2)c1	> 100	> 100	> 100	> 100	> 100	> 100	> 100		> 100	> 100							
CC(=O)OC1COC(Nc2nc(NCc3ccccc3)n(C)c(=O)c2N=O)C(OC(C)=O)C1OC(C)=O (centres undefined)	> 10	> 10	> 10	> 10	> 10	> 10	> 10	> 10	> 10								
O=C(O)/C(Cc1ccc([N+](=O)[O-])cc1)=N\O	> 100	> 100	> 100	> 100	> 100	> 100	> 100	> 100	> 100								
CN(/N=C/c1ccnc2ccccc12)c1ccc(Cl)cc1[N+](=O)[O-]	> 100	> 100	> 100	> 100		> 100	> 100	> 100	> 100	> 100							
S=C(c1c[nH]c2ccccc12)N1CCN(Cc2ccccc2)CC1	42.8	32.4	36	26.9	29.2	44	> 100		32.9	47.9							
CC(=O)OC[C@@H](OC(C)=O)[C@H](OC(C)=O)[C@@H]1OC(C)(C)O[C@@H]1C1SCCCS1	> 100	> 100		> 100	> 100		> 100	> 100	> 100	> 100							
Clc1ccc(C(SCc2ccccc2)SCc2ccccc2)cc1	> 10		> 10	> 10	> 10	> 10	> 10	> 10	> 10	> 10							
COc1ccc(N2C(=O)C3c4[nH]c5ccc(F)cc5c4C4CCC(c5ccccc5)CC4C3C2=O)cc1 (centres undefined)	44.5	40.7	> 100	45.1	> 100		> 100	> 100		36.1							
O=[N+]([O-])c1cc2c(cc1/C=N/n1c(CO)nc3ccccc31)OCO2	> 100	> 100	> 100	> 100	> 100	> 100	> 100	> 100	> 100								
O=c1[nH]nc(Cc2ccccc2)n1CCO	> 100	> 100	> 100	> 100	> 100		> 100	> 100	> 100								
C=CCO[C@]1(CC=C)C(=O)C(=O)OC1C1COC(C)(C)O1 (some centres undefined)	> 100		> 100		31.5		> 100	> 100	> 100	67							
NNC(=O)c1nnn(CCc2ccccc2)c1C(=O)NN	> 100	> 100	> 100	> 100	> 100	> 100	> 100	> 100		> 100							
Nc1nc(N)c2cc(NCc3ccc(Cl)c(Cl)c3)ccc2n1	2.61		16.6	2.16		2.93	3.01	1.82	3.04		1.65	1.19	2.88	0.841	1.35	1.65	0.528
CC(C)C1=CC23CCC4C(C)(C(=O)O)CCCC4(C)C2CC1C1C(=O)N(c2ccccc2)C(=O)C13 (centres undefined)	> 100			> 100	> 100	> 100		> 100	> 100	> 100							
O=C(O)Cc1ccc2[nH]c(O)c(C3=Nc4ccccc4C3=O)c2c1	> 100	> 100	> 100	> 100	> 100		> 100	> 100		93							
O=[N+]([O-])c1ccc(C=NCC2CCCN3CCCCC23)cc1 (centres undefined)	> 100	> 100	> 100	> 100	30.4	> 100	> 100	> 100		> 100							
CC1=Nc2sc3c(c2C2=NCCN12)CCCC3	46.3	43.4	54.4		36.8	61	> 100			65.2							
C/C=C/C1OC(O)(C(C)C(O)[C@H](C)C2OC(=O)/C(OC)=C/C(C)=C/[C@@H](C)[C@@H](O)[C@@H](C)C(O)C(C)C/C(C)=C/C=C/C2OC)C[C@@H](OC2CC(O)C(OC(N)=O)C(C)O2)C1C (some centres undefined)	15.3	12	> 68.6	< 0.01	< 0.01		16.2	13.3	< 0.01								
Cc1cn([C@@H]2O[C@H](CO[Si](C)(C)C(C)(C)C)[C@]3(O[C@H]3C(=O)NN)[C@H]2O[Si](C)(C)C(C)(C)C)c(=O)[nH]c1=O	30	13.9	33	20.4	10.7	6.09	21.8	16.6	16.3								
COc1cc2c(cc1OC)C1(COc3cc(O)c(O)c(O)c3C1=O)C2 (centres undefined)	> 50		> 50	> 50	> 50	> 50	> 50	> 50	> 50	> 50							
O=C1OC(=O)c2cc(S(=O)(=O)c3ccc4c(c3)C(=O)OC4=O)ccc21	> 100	> 100	> 100	> 100	> 100		> 100	> 100	> 100								
COc1cc2c(=O)cnoc2cc1O	> 100	> 100	> 100	> 100		> 100	> 100	> 100	> 100	> 100							
